For two molecules, Therapeutic dose results are on record in ChEMBL document CHEMBL1124452, “New sensitizers for photodynamic therapy: controlled synthesis of purpurins and their effect on normal tissue” (1989).

This test concerns Rattus norvegicus. Description: In vivo cytotoxicity to the FANFT-induced urothelial cell carcinoma transplanted onto Fischer CDF (F344/CrlBR) rats (Tumoricidal activity). The test is classed as functional.

`CCOC(=O)C1=Cc2c3nc(cc4nc(cc5[nH]c(cc6[nH]c2c(C)c6CC)c(C)c5CC)C(C)=C4CC)C(C)C13CC` (configuration not stated) [ETIOPURPURIN] yielded a Therapeutic dose of 2.5 mg/kg.
The value for `CCOC(=O)C1=Cc2c3nc(cc4nc(cc5[nH]c(cc6[nH]c2c(CC)c6CC)c(CC)c5CC)C(CC)=C4CC)C(CC)C13CC` (configuration not stated) [OCTAETHYLPURPURIN] was 5 mg/kg.
